Values quoted from earlier work, collected in patent publication US9302023B2, “Aldehyde gas deodorant and method for producing same” (TOAGOSEI CO., LTD., priority 2012, dated 2016).

Settings: stated as known; unsupported substance

Row | SMILES | Mutagenicity of the substance itself
1 | NNC(=O)CCCCC(=O)NN [adipic dihydrazide] | negative
2 | NNC(=O)NN [carbohydrazide] | negative
3 | NN [hydrated hydrazine] | strongly positive
4 | NN [hydrazine] | positive
5 | NNC(=O)C(=O)NN [oxalic dihydrazide] | negative
6 | NNC(=O)CCC(=O)NN [succinic dihydrazide] | weakly positive

Same assay, conditions: stated as known; unsupported substance; listed as Hydrazine

Row | SMILES | Mutagenicity of the substance itself
7 | NN [hydrazine] | highly positive
